In US20230293560A1, “METHOD FOR MODULATING THE BLADDER MICROBIOME TO IMPROVE BLADDER HEALTH” (Kimberly-Clark Worldwide, Inc., priority 2020, published 2023):
Several values for one entry are separate records, joined by “and”; a condition that tells them apart may be missing. Equal values may be shown once.

Columns and labels:
[1] = test system: ratio of L. crispatus/S. anginosus; test: Therapeutic effect protocol (competition assay); assay type: cell-based, Lactobacillus crispatus; Streptococcus anginosus; settings: Lc-3 vs Sa-2
From the text: As used herein, the term “therapeutic effect” refers to the ability of the compositions and formulations of the present disclosure to stimulate the growth of L. crispatus relative S. anginosus measured according to the therapeutic effect protocol described below. The therapeutic effect can be expressed as a ratio of L. crispatus to S. anginosus and is desirably greater than about 100, more preferably greater than about 500 and more desirably greater than about 1,000.
Further testing was conducted to put the prebiotic compounds in competition assay testing, as further described in the test methods section herein. In the competition assay testing, each competition involved testing a single prebiotic compound with the commensal bacteria species of L. crispatus, KC18-1173-1, Bladder (“Lc-3”—Table 2) against the pathogenic bacterial species of S. anginosus, KC18-1131-3B, Bladder (“Sa-2”—Table 2).
• 1. An in house bacterial agar was created based on MRS agar (Kaplan and Hutkins, 2000) where the glucose is substituted for the prebiotic to be tested (either dextran MW ˜6,000, alpha-cyclodextrin, glucomannan, or pectin), bromocresol purple was included as a pH indicator. • 2. Bacteria were enumerated on each agar and color changes were recorded. Method for Competition Assay (Modified from “In Vitro Evaluation of Nutrients that Selectively Confer a Competitive Advantage to Lactobacilli” Vongsa et al, Beneficial Microbes 2016) • 1. Create 2% w/v stock of prebiotic or positive control (glucose/dextrose) as described above. • 2. From a freezer stock subculture the bacteria twice into De Man, Rogosa and Sharpe (MRS) broth (BD Difco, Becton Dickinson, Franklin Lakes, NJ), 37° C., stationary, anaerobic, overnight. • 3. From the last subculture, plate onto an MRS agar plate for L. crispatus KC18-1173-1 or blood agar for S. anginosus KC18-1131-3B, grow 37° C., stationary, anaerobic, overnight. • 4. Create a bacterial suspension by using a sterile tipped swab to transfer colonies of bacteria into a PBS suspension blank to a 2 MacFarland for both species. • 5. Enumerate the starting culture. • 6. Add 9.8 mL of prebiotic media into a 15 mL conical tube. • 7. Add 100 μL of the diluted bacteria to the media, incubate at 37° C., anaerobic, 48 hours. • 8. Harvest 100 μL from the tube containing the prebiotic and plate onto MRS agar and tryptic soy agar (TSA). • 9. Enumerate the bacteria on the MRS agar (both the L. crispatus and the S. anginosus). Small colonies are counted as S. anginosus and large colonies are counted as L. crispatus. • 10. Enumerate the bacteria on the TSA plate. […] Growth of the bacteria in the negative control (CHL media without prebiotic) was subtracted from the growth in the presence of the prebiotic or formulation.
Colonies of L. crispatus and S. anginosus were tested against in the competition method assay test method as described above. The therapeutic effect was calculated by comparing the colony forming units recovered after the competition assay of both L. crispatus and S. anginosus and calculating the ratio of L. crispatus/S. anginosus. A larger number indicates an increase in L. crispatus and/or a decrease in S. anginosus and a smaller number indicates a decrease in L. crispatus and/or an increase in S. anginosus.

L. crispatus = test: High throughput assay screening of prebiotics; assay type: cell-based, Lactobacillus crispatus; set-up: key: ++: if growth and fermentation was equal to or greater than the positive control; +: if growth and fermentation was less than the positive control; +: if weak or no growth or fermentation; +^2: Bacteria demonstrated growth but no fermentation on the prebiotic; settings: 2% w/v prebiotic in API 50 CHL media; for growth and fermentation vs positive control, Lc-4: L. crispatus KC18-1174-1, Vagina
Method in brief: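 Prebiotic or glucose/dextrose positive control in API 50 CHL minimal-carbon medium with bromocresol purple, inoculated with bacterial suspension (0.5 McFarland streptococci/enterococci, 1 McFarland lactobacilli). Read every 20 min for 24-48 h; OD430 rise/OD590 fall marks fermentation, OD660 rise marks growth, scored versus positive control.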

E. coli = test: Additional prebiotic screening against E. coli; assay type: cell-based, Escherichia coli; settings: for # fermented, Ec-1 / # grew, Ec-1: E. coli KC16-7171-8, Bladder; for # fermented, Ec-1 / # grew, Ec-1 / # fermented, Ec-2 / # grew, Ec-2 / # fermented, Ec-3 / # grew, Ec-3 / # fermented, Ec-4 / # grew, Ec-4 / # fermented, Ec-5 / # grew, Ec-5: of 2 tested; for # fermented, Ec-2 / # grew, Ec-2: E. coli KC17-3969-1, Bladder; for # fermented, Ec-3 / # grew, Ec-3: E. coli KC17-3970-4, Vagina; for # fermented, Ec-4 / # grew, Ec-4: E. coli KC17-4296-4, Vagina; for # fermented, Ec-5 / # grew, Ec-5: E. coli KC17-4297-5, Bladder; for growth or fermentation of E. coli, in words: E. coli from vaginal or bladder source
From the text: Additional screening of three prebiotic compounds of alpha-methyl-D-glucoside, isomaltulose, and alpha cyclodextrin was completed against pathogenic bacteria species Escherichia coli from both bladder and vaginal sources, as shown in Table 4. The growth of the bacterial species for this additional screening process against E. coli was not compared to growth of a control as in the screening process documented in Table 3, but was documented based on growth or no growth for the number of samples tested.
• 1. Create a 2% w/v stock of prebiotic or positive control (glucose/dextrose) to be tested in API 50 CHL media (Biomerieux, Marcy-I'Étoile, France). API 50 CHL media contains minimal amounts of carbon for growth, and a bromocresol purple as a pH indicator of fermentation. Filter sterilize media with a […]. Store at 4-6° C. until use. • 2. Add 180 μL of media containing the prebiotic to a sterile, flat bottom 96-well microtiter plate (Corning, Corning, NY). • 3. From a freezer stock subculture the bacteria twice into De Man, Rogosa and Sharpe (MRS) broth (BD Difco, Becton Dickinson, Franklin Lakes, NJ), 37° C., stationary, anaerobic, overnight. • 4. From the last subculture, plate onto an MRS agar plate (Teknova, Hollister, CA) and grow 37° C., stationary, anaerobic, overnight. • 5. Create a bacterial suspension by using a sterile tipped swab to transfer colonies of bacteria into a PBS suspension blank to a 0.5 MacFarland (S. anginosus or E. faecalis) or a 1 MacFarland (Lactobacillus species) from the MRS agar plate. • 6. Enumerate the starting culture. • 7. Inoculate the media alone and media containing the prebiotic or positive control with 20 μL of the bacterial suspension. • 8. Place the plate into a spectrophotometer (Molecular Devices, San Jose, CA) and read the plate every 20 minutes for 24-48 hours. Read wavelengths (OD 430, OD 590, and OD 660). A color change to yellow caused by a drop in pH will be read by an increase in the OD430 value and a decrease in the OD590 value and is indicative of bacterial fermentation. An increase in OD660 values is indicative of an increase in turbidity and bacterial growth.

Row | Structure (SMILES) | outcome of the bacterial competition assay, in words ([1]; Tables 6 and 7) | growth and fermentation vs positive control, Lc-3 (L. crispatus; L. crispatus KC18-1173-1, Bladder) | growth and fermentation vs positive control, Lc-4 (L. crispatus) | # fermented, Ec-1 (E. coli) | # grew, Ec-1 (E. coli) | # fermented, Ec-2 (E. coli) | # grew, Ec-2 (E. coli) | # fermented, Ec-3 (E. coli) | # grew, Ec-3 (E. coli) | # fermented, Ec-4 (E. coli) | # grew, Ec-4 (E. coli) | # fermented, Ec-5 (E. coli) | # grew, Ec-5 (E. coli) | growth or fermentation of E. coli, in words (E. coli) | Therapeutic Effect (ratio of L. crispatus/S. anginosus) ([1]; Table 6, prebiotic 2%) | growth and fermentation vs positive control, Lc-2 (L. crispatus; L. crispatus KC16-7134-3C, Bladder)
1 | OC[C@H]1O[C@H](OC[C@H]2OC(O)(CO)[C@@H](O)[C@@H]2O)[C@H](O)[C@@H](O)[C@@H]1O (stereo partly shown) [Palatinose (isomaltulose), isomaltulose] | supported the growth of Lactobacillus crispatus over Streptococcus anginosus | ++ | ++ | 0 | 0 | 0 | 0 | 0 | 0 | 0 | 0 | 0 | 0 | did not grow or ferment | – | –
2 | CO[C@H]1O[C@H](CO)[C@@H](O)[C@H](O)[C@H]1O [Alpha-Methyl-D-Glucoside] | – | – | + | 0 | 0 | 0 | 0 | 0 | 0 | 0 | 0 | 0 | 0 | did not grow or ferment | 1.21E−01 (2×) and 1.74E−01 (2×) | +
